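Exposure lasted 48 hours, with cells grown in 96-well plates and compounds tested at five concentrations. The concentration for 50% growth inhibition is given as GI50.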 Activity calls are given as the source filed them. No stated cut-off is given here; in the data, active = GI50 up to about 1.1 µM and inactive = higher.
Assays:
Experiment in all cases: inhibition of tumour cell growth, NCI panel, 48 h
[1] = tested on: SNB-19
[2] = tested on: A549
[3] = tested on: UACC-62
[4] = tested on: EKVX
[5] = tested on: BT-549
[6] = tested on: HL-60
[7] = tested on: MCF7
[8] = tested on: SW-620
[9] = tested on: NCI-H460
[10] = tested on: UACC-257
[11] = tested on: HT-29
[12] = tested on: A498
[13] = tested on: K562
[14] = tested on: SK-MEL-2
[15] = tested on: NCI/ADR-RES
[16] = tested on: SF-295
[17] = tested on: NCI-H522
[18] = tested on: OVCAR-4
[19] = tested on: MDA-MB-435
[20] = tested on: SNB-75

| SMILES | GI50 [1] | GI50 [2] | GI50 [3] | GI50 [4] | GI50 [5] | GI50 [6] | GI50 [7] | GI50 [8] | GI50 [9] | GI50 [10] | GI50 [11] | GI50 [12] | GI50 [13] | GI50 [14] | GI50 [15] | GI50 [16] | GI50 [17] | GI50 [18] | GI50 [19] | GI50 [20] |
| --- | --- | --- | --- | --- | --- | --- | --- | --- | --- | --- | --- | --- | --- | --- | --- | --- | --- | --- | --- | --- |
| COc1cc2c(/C=C3/C(=O)Nc4ccccc43)c(Cl)n(Cc3ccc(Cl)cc3)c2cc1C | 0.43 µM (active) | 0.366 µM (active) | 0.28 µM (active) | 1.18 µM (inactive) | 0.382 µM (active) | 0.373 µM (active) | 0.491 µM (active) | 0.472 µM (active) | 0.359 µM (active) | 0.378 µM (active) | 0.296 µM (active) | 0.733 µM (active) | 0.365 µM (active) | 1.16 µM (inactive) | 0.225 µM (active) | 0.333 µM (active) | 0.343 µM (active) | 0.632 µM (active) | 0.193 µM (active) | 0.237 µM (active) |
| COC(=O)C1C(O)C(C)C(O)C(C)(O)C=C(C)C2=C3C(=C(C)C(=O)c4c(O)c(c(C)c(OC(C)=O)c43)NC(=O)C(C)=C/C=C\C(C)(O)C(O)C(C)C1O)OCO2 (stereo not given) | > 100 µM (inactive) | 88.9 µM (inactive) | 53.8 µM (inactive) | > 100 µM (inactive) | > 100 µM (inactive) | 25.2 µM (inactive) | 41.3 µM (inactive) | 40.8 µM (inactive) | > 100 µM (inactive) | 28.9 µM (inactive) | 62.2 µM (inactive) | > 100 µM (inactive) | 81.1 µM (inactive) | 22.9 µM (inactive) | > 100 µM (inactive) | > 100 µM (inactive) | 88.3 µM (inactive) | 56.4 µM (inactive) | 33.9 µM (inactive) | > 100 µM (inactive) |
| CCOc1cc(NC(C)=O)ccc1C(=O)NN1C(=O)CSC1c1ccc(O)c(OC)c1 (stereo not given) | 89.1 µM (inactive) | 38.9 µM (inactive) | 50.4 µM (inactive) | 42.7 µM (inactive) | 28 µM (inactive) | 41.5 µM (inactive) | 44.7 µM (inactive) | 87.7 µM (inactive) | 43.5 µM (inactive) | 48.4 µM (inactive) | 73.6 µM (inactive) | > 100 µM (inactive) | 40.7 µM (inactive) | 49 µM (inactive) | 30.8 µM (inactive) | 50.8 µM (inactive) | 37.8 µM (inactive) | 39.9 µM (inactive) | 46.2 µM (inactive) | 85.3 µM (inactive) |
| CC1CC[C@@]2(OC1)OC1C[C@H]3[C@@H]4CC[C@H]5CC(OC6OC(CO)C(O)C(OC7OC(CO)C(OC8OC(CO)C(O)C(OC9OC(CO)C(O)C(O)C9O)C8OC8OC(CO)C(O)C(O)C8O)C(O)C7O)C6O)[C@H](O)CC5(C)[C@H]4CCC3(C)C1[C@@H]2C (stereo not given in full) | 2.2 µM (inactive) | 9.4 µM (inactive) | 8.69 µM (inactive) | 4.15 µM (inactive) | 4.37 µM (inactive) | 2.57 µM (inactive) | 1.66 µM (inactive) | 2.22 µM (inactive) | 7.06 µM (inactive) | 8.75 µM (inactive) | 3.52 µM (inactive) | 1.06 µM (active) | 3.37 µM (inactive) | 3.27 µM (inactive) | 4.72 µM (inactive) | 2.99 µM (inactive) | 1.66 µM (inactive) | 2.4 µM (inactive) | 6.59 µM (inactive) | 3.98 µM (inactive) |
| O=C1C2CC(Cl)C(SSC3CC4C(=O)N(SC(Cl)(Cl)C(Cl)Cl)C(=O)C4CC3Cl)CC2C(=O)N1SC(Cl)(Cl)C(Cl)Cl (stereo not given) | 3.86 µM (inactive) | 2.86 µM (inactive) | 1.69 µM (inactive) | 3.01 µM (inactive) | 1.7 µM (inactive) | 0.543 µM (active) | 1.67 µM (inactive) | 1.27 µM (inactive) | 2.39 µM (inactive) | 2.02 µM (inactive) | 1.77 µM (inactive) | 2.81 µM (inactive) | 0.979 µM (active) | 1.53 µM (inactive) | 2.06 µM (inactive) | 5.13 µM (inactive) | 0.379 µM (active) | 2.13 µM (inactive) | 1.65 µM (inactive) | 2.05 µM (inactive) |
| COC(=O)c1cc(C#N)[nH]c1-c1ccc(Br)s1 | 7.74 µM (inactive) | 8.55 µM (inactive) | 11.6 µM (inactive) | 3.97 µM (inactive) | 10.9 µM (inactive) | 11.5 µM (inactive) | 0.459 µM (active) | 15.9 µM (inactive) | 17.6 µM (inactive) | 9.4 µM (inactive) | 12.4 µM (inactive) | 1.03 µM (active) | > 30.8 µM (inactive) | 6.55 µM (inactive) | 10.3 µM (inactive) | 8.41 µM (inactive) | 7.03 µM (inactive) | 10.1 µM (inactive) | 13.5 µM (inactive) | 8.85 µM (inactive) |
| CCCC[C@@H]1CCN2C[C@@H](O)[C@@H](O)[C@H]2[C@@H]1O | > 100 µM (inactive) | > 100 µM (inactive) | > 100 µM (inactive) | > 100 µM (inactive) | > 100 µM (inactive) | > 100 µM (inactive) | > 100 µM (inactive) | > 100 µM (inactive) | > 100 µM (inactive) | > 100 µM (inactive) | > 100 µM (inactive) | > 100 µM (inactive) | > 100 µM (inactive) | > 100 µM (inactive) | > 100 µM (inactive) | > 100 µM (inactive) | > 100 µM (inactive) | > 100 µM (inactive) | > 100 µM (inactive) | > 100 µM (inactive) |
| CCc1nc(N)nc(N)c1-c1ccc(NCCc2ccccc2)c([N+](=O)[O-])c1 | 2.21 µM (inactive) | 0.0861 µM (active) | 0.162 µM (active) | 3.34 µM (inactive) | 4.62 µM (inactive) | 0.186 µM (active) | 1.13 µM (inactive) | 0.163 µM (active) | 0.0687 µM (active) | 1.77 µM (inactive) | 0.195 µM (active) | 3.05 µM (inactive) | 0.0325 µM (active) | 8.71 µM (inactive) | 0.716 µM (active) | 0.317 µM (active) | 0.56 µM (active) | 3.24 µM (inactive) | 0.389 µM (active) | 3.56 µM (inactive) |
| CCOC(=O)C1(C#N)C(=O)c2cc[n+](CC[n+]3ccc4c(c3)C(=O)C(C#N)(C(=O)OCC)C4=O)cc2C1=O (stereo not given) | > 100 µM (inactive) | > 100 µM (inactive) | > 100 µM (inactive) | > 100 µM (inactive) | > 100 µM (inactive) | 83.4 µM (inactive) | > 100 µM (inactive) | > 100 µM (inactive) | > 100 µM (inactive) | > 100 µM (inactive) | > 100 µM (inactive) | > 100 µM (inactive) | 86.1 µM (inactive) | 36.1 µM (inactive) | > 100 µM (inactive) | > 100 µM (inactive) | > 100 µM (inactive) | > 100 µM (inactive) | > 100 µM (inactive) | > 100 µM (inactive) |
| O=c1cc(-c2ccc(O)cc2)oc2cc(O[C@@H]3O[C@H](CO)[C@@H](O)[C@H](O)[C@H]3O)cc(O)c12 [APIGETRIN] | 39.4 µM (inactive) | 51.3 µM (inactive) | 43.3 µM (inactive) | > 100 µM (inactive) | 24.4 µM (inactive) | 80.5 µM (inactive) | > 100 µM (inactive) | 72.9 µM (inactive) | 34.2 µM (inactive) | > 100 µM (inactive) | 53 µM (inactive) | 67.1 µM (inactive) | 77.8 µM (inactive) | 61.5 µM (inactive) | 42 µM (inactive) | 62.8 µM (inactive) | 31.1 µM (inactive) | 28.2 µM (inactive) | 71.6 µM (inactive) | 40.8 µM (inactive) |
